Assay results as given in patent US4966900A, “Cephalosporin β-lactam compound and medicinal composition” (priority 1986, dated 1990).
Converted amounts (≈) assume the structure as drawn.

Experiments:
Test in all cases: MIC
[1] = tested on: E. cloacae 1V247; assay type: cell-based; details: Enterobacter cloacae, Table 8
Method: (§1) The minimum inhibition concentrations (MIC) of the compounds obtained in the respective examples described above were measured according to the standard method of Japanese Chemotherapy Association.

[2] = tested on: S. aureus IAA498; assay type: cell-based; details: Staphylococcus aureus, Table 7
Method: as §1

[3] = tested on: S. aureus Smith; details: Staphylococcus aureus, Table 7
[4] = tested on: E. coli ML4707; details: Escherichia coli, ML4707, E. coli ML4707; Table 7
[5] = tested on: E. coli GN5482; details: Escherichia coli, GN5482, E. coli GN5482; Table 7
[6] = tested on: K. pneumoniae 4at521; details: Klebsiella pneumoniae, 4AT521
[7] = tested on: E. colacae GN7471; details: Table 7
[8] = tested on: E. cloacae 908RN; details: Enterobacter cloacae, E. colacae 908RN, Table 7
[9] = tested on: C. freundii GN7391; details: Citrobacter freundii, GN7391, C. freundii GN7391; Table 7
[10] = tested on: S. marcescens GN10857; details: Serratia marcescens, GN10857, S. marcescens GN10857; Table 7
[11] = tested on: P. vulgaris GN7919; details: Proteus vulgaris, GN7919
[12] = tested on: P. aeruginosa GN10362; details: Pseudomonas aeruginosa, GN10362
[13] = tested on: P. aeruginosa 4au542; details: Pseudomonas aeruginosa, 4AU542, P. aeruginosa 4au542; Table 7
[14] = tested on: P. aeruginosa 5D58-1; details: Pseudomonas aeruginosa, 5D581, P. aeruginosa 5D58-1; Table 7
[15] = tested on: P. cepacia OF189; details: Burkholderia cepacia, OF189, P. cepacia OF189; Table 7
[16] = tested on: P. maltophilia OF247; details: Stenotrophomonas maltophilia, Table 7
[17] = tested on: E. cloacae 5D52-2; details: Enterobacter cloacae, 5D522
[18] = tested on: E. cloacae 5D63-2; details: Enterobacter cloacae, 5D632
[19] = tested on: E. cloacae 1V25; details: Enterobacter cloacae
[20] = tested on: C. freundii 5D60-1; details: Citrobacter freundii, 5D601
[21] = tested on: C. freundii 1R523; details: Citrobacter freundii, 1R523
[22] = tested on: C. freundii 1R524; details: Citrobacter freundii, 1R524
[23] = tested on: C. freundii 1R526; details: Citrobacter freundii, 1R526
[24] = tested on: C. freundii 1R527; details: Citrobacter freundii, 1R527
[25] = tested on: C. freundii 1U589; details: Citrobacter freundii, 1U589
[26] = tested on: C. freundii 1U692; details: Citrobacter freundii, 1U692

Row | Structure (SMILES) | MIC [1] | MIC [2] | MIC [3] | MIC [4] | MIC [5] | MIC [6] | MIC [7] | MIC [8] | MIC [9] | MIC [10] | MIC [11] | MIC [12] | MIC [13] | MIC [14] | MIC [15] | MIC [16] | MIC [17] | MIC [18] | MIC [19] | MIC [20] | other results
1 | CC(=O)Oc1ccc(C(=O)NNC(=O)C(C)(C)ON=C(C(=O)NC2C(=O)N3C(C(=O)O)=C(CSc4ccnc5nc(C(=O)O)nn45)CS[C@H]23)c2csc(N)n2)cc1OC(C)=O (some centres unmarked) [Example 46, 7-{2-[2-Amino-1,3-thiazol-4-yl]-2-[1-(3-(3,4-diacetoxybenzoyl)carbazoyl)-1-methylethoxyimino]acetamido}-3-[(2-carboxy-s-triazolo[1,5-a]pyrimidin-7-yl)thiomethyl]-3-cephem-4-carboxylic acid] | 25 µg/mL (≈ 27.8 µM) | 25 µg/mL (≈ 27.8 µM) | 12.5 µg/mL (≈ 13.9 µM) | 0.05 µg/mL (≈ 0.0557 µM) | 0.05 µg/mL (≈ 0.0557 µM) | 0.025 µg/mL (≈ 0.0278 µM) | 0.78 µg/mL (≈ 0.869 µM) | 12.5 µg/mL (≈ 13.9 µM) | 100 µg/mL (≈ 111 µM) | 0.78 µg/mL (≈ 0.869 µM) | 12.5 µg/mL (≈ 13.9 µM) | 0.2 µg/mL (≈ 0.223 µM) | 0.39 µg/mL (≈ 0.434 µM) | 0.2 µg/mL (≈ 0.223 µM) | < 0.006 µg/mL | 0.78 µg/mL (≈ 0.869 µM) | 0.39 µg/mL (≈ 0.434 µM) | 5.25 µg/mL (≈ 5.85 µM) | 25 µg/mL (≈ 27.8 µM) | 12.5 µg/mL (≈ 13.9 µM) | MIC [21]: 3.13 µg/mL (≈ 3.49 µM); MIC [22]: 3.13 µg/mL (≈ 3.49 µM); MIC [23]: 3.13 µg/mL (≈ 3.49 µM); MIC [24]: 3.13 µg/mL (≈ 3.49 µM); MIC [25]: 6.25 µg/mL (≈ 6.96 µM); MIC [26]: 6.25 µg/mL (≈ 6.96 µM)
2 | CC(=O)Oc1ccc(C(=O)NNC(=O)C(C)(C)ON=C(C(=O)NC2C(=O)N3C(C(=O)O)=C(CSc4cc(C)nc5nc(C(F)(F)F)nn45)CS[C@H]23)c2csc(N)n2)cc1OC(C)=O (some centres unmarked) [Example 48, 7-{2-[2-Amino-1,3-thiazol-4-yl]-2-[1-(3-(3,4-diacetoxybenzoyl)carbazoyl)-1-methylethoxyimino]acetamido}-3-[(5-methyl-2-trifluoromethyl-s-triazolo[1,5-a]pyrimidin-7-yl)-thiomethyl]-3-cephem-4-carboxylic acid] | 50 µg/mL (≈ 53.4 µM) | 12.5 µg/mL (≈ 13.4 µM) | 6.25 µg/mL (≈ 6.68 µM) | 0.1 µg/mL (≈ 0.107 µM) | 0.05 µg/mL (≈ 0.0534 µM) | 0.1 µg/mL (≈ 0.107 µM) | 12.5 µg/mL (≈ 13.4 µM) | 3.13 µg/mL (≈ 3.34 µM) | 12.5 µg/mL (≈ 13.4 µM) | 12.5 µg/mL (≈ 13.4 µM) | 3.13 µg/mL (≈ 3.34 µM) | 0.78 µg/mL (≈ 0.833 µM) | 1.56 µg/mL (≈ 1.67 µM) | 0.78 µg/mL (≈ 0.833 µM) | < 0.006 µg/mL | 12.5 µg/mL (≈ 13.4 µM) | 1.56 µg/mL (≈ 1.67 µM) | 1.56 µg/mL (≈ 1.67 µM) | 50 µg/mL (≈ 53.4 µM) | 12.5 µg/mL (≈ 13.4 µM) | MIC [21]: 0.78 µg/mL (≈ 0.833 µM); MIC [22]: 0.78 µg/mL (≈ 0.833 µM); MIC [23]: 12.5 µg/mL (≈ 13.4 µM); MIC [24]: 25 µg/mL (≈ 26.7 µM); MIC [25]: 12.5 µg/mL (≈ 13.4 µM); MIC [26]: 12.5 µg/mL (≈ 13.4 µM)
3 | CC(C)(ON=C(C(=O)NC1C(=O)N2C(C(=O)O)=C(CSc3ccnc4nc(C(=O)O)nn34)CS[C@H]12)c1csc(N)n1)C(=O)NNC(=O)c1ccc(O)c(O)c1 (some centres unmarked) [Example 56, 7-{2-[2-Amino-1,3-thiazol-4-yl]-2-[1-(3-(3,4-dihydroxybenzoyl)carbazoyl)-1-methylethoxyimino]acetamido}-3-[(2-carboxy-s-triazolo[1,5-a]pyrimidin-7-yl)thiomethyl]-3-cephem-4-carboxylic acid] | 12.5 µg/mL (≈ 15.4 µM) | 12.5 µg/mL (≈ 15.4 µM) | 6.25 µg/mL (≈ 7.68 µM) | 0.025 µg/mL (≈ 0.0307 µM) | 0.025 µg/mL (≈ 0.0307 µM) | 0.025 µg/mL (≈ 0.0307 µM) | 0.39 µg/mL (≈ 0.479 µM) | 1.56 µg/mL (≈ 1.92 µM) | 25 µg/mL (≈ 30.7 µM) | 0.39 µg/mL (≈ 0.479 µM) | 1.56 µg/mL (≈ 1.92 µM) | 0.1 µg/mL (≈ 0.123 µM) | 0.2 µg/mL (≈ 0.246 µM) | 0.05 µg/mL (≈ 0.0614 µM) | < 0.006 µg/mL | 0.39 µg/mL (≈ 0.479 µM) | 0.1 µg/mL (≈ 0.123 µM) | 1.56 µg/mL (≈ 1.92 µM) | 12.5 µg/mL (≈ 15.4 µM) | 6.25 µg/mL (≈ 7.68 µM) | MIC [21]: 1.56 µg/mL (≈ 1.92 µM); MIC [22]: 1.56 µg/mL (≈ 1.92 µM); MIC [23]: 3.13 µg/mL (≈ 3.85 µM); MIC [24]: 1.56 µg/mL (≈ 1.92 µM); MIC [25]: 6.25 µg/mL (≈ 7.68 µM); MIC [26]: 6.25 µg/mL (≈ 7.68 µM)
4 | Cc1cc(SCC2=C(C(=O)O)N3C(=O)C(NC(=O)C(=NOC(C)(C)C(=O)NNC(=O)c4ccc(O)c(O)c4)c4csc(N)n4)[C@H]3SC2)n2nccc2n1 (some centres unmarked) [Example 58, 7-{2-[2-Amino-1,3-thiazol-4-yl]-2-[1-(3-(3,4-dihydroxybenzoyl)carbazoyl)-1-methylethoxyimino]acetamido}-3-[(5-methylpyrazolo[1,5-a]pyrimidin-7-yl)thiomethyl]-3-cephem-4-carboxylic acid] | 6.25 µg/mL (≈ 7.98 µM) | 3.13 µg/mL (≈ 4 µM) | 1.56 µg/mL (≈ 1.99 µM) | < 0.006 µg/mL | < 0.006 µg/mL | 0.012 µg/mL (≈ 0.0153 µM) | 1.56 µg/mL (≈ 1.99 µM) | 0.39 µg/mL (≈ 0.498 µM) | 3.13 µg/mL (≈ 4 µM) | 1.56 µg/mL (≈ 1.99 µM) | 1.56 µg/mL (≈ 1.99 µM) | 0.1 µg/mL (≈ 0.128 µM) | 0.2 µg/mL (≈ 0.255 µM) | 0.05 µg/mL (≈ 0.0639 µM) | 0.012 µg/mL (≈ 0.0153 µM) | 1.56 µg/mL (≈ 1.99 µM) | 0.1 µg/mL (≈ 0.128 µM) | 0.39 µg/mL (≈ 0.498 µM) | 6.25 µg/mL (≈ 7.98 µM) | 1.56 µg/mL (≈ 1.99 µM) | MIC [21]: 0.39 µg/mL (≈ 0.498 µM); MIC [22]: 0.39 µg/mL (≈ 0.498 µM); MIC [23]: 3.13 µg/mL (≈ 4 µM); MIC [24]: 1.56 µg/mL (≈ 1.99 µM); MIC [25]: 3.13 µg/mL (≈ 4 µM); MIC [26]: 1.56 µg/mL (≈ 1.99 µM)
